This is an account of results in patent US10954219B2, “1,3-benzodioxole derivative” (DAIICHI SANKYO COMPANY, LIMITED, priority 2014, dated 2021).

The structures appear in SMILES notation.

For one assay, the target named is PRC2-EZH1 (WT EZH1) (Homo sapiens, UniProt Q92800). Nature of the assay: EZH1 methyltransferase inhibitory activity evaluation.
For another assay, the target named is T1, PRC2-EZH2 (WT EZH2) (Homo sapiens, UniProt Q15910).
T1 construct: made in house
Nature of the assay: EZH2 methyltransferase inhibitory activity evaluation. It counts as biochemical. Conditions: PRC2-EZH2, biotin-H3 peptide, 3H-SAM, 2 hours.

Assay [1] relates to Intracellular H3K27me3 in HCT116 cells. The assay is described as follows: Intracellular H3K27me3 inhibitory activity evaluation. It counts as cell-based. Conditions: Homo sapiens, HCT-116, 72 h, 3 days, AlphaLISA, read-out: Test Example 3 H3K27me3 inhibition (HCT116) IC50. For orientation: Bead proximity is the source of the signal in Alpha formats.
Description: The HCT116 cells were purchased from American Type Culture Collection (ATCC). […] Intracellular H3K27me3 was quantified using AlphaLISA H3K27me3 Cellular Detection Kit (PerkinElmer, Inc., #AL722F). The cells thus cultured in each well were washed with 100 μL of PBS. Cell-Histone Lysis buffer diluted 6-fold with PBS was added thereto at 80 μL/well, and the plate was then incubated at room temperature for 15 minutes while shaken. Then, Cell-Histone Extraction buffer was added thereto at 40 μL/well, and the plate was incubated at room temperature for 10 minutes while shaken. […] An AlphaLISA anti-H3K27me3 Acceptor beads/Biotinylated Antibody anti-Histone H3 (C-ter) mixed solution was added thereto at 3.3 μL/well, and the plate was incubated at room temperature for 60 minutes. Then, Streptavidin (SA)-coated Donor beads were added thereto at 3.3 μL/well, and the plate was incubated at room temperature for 30 minutes with the plate shielded from light.

T1 sequence (Q15910 whole entry): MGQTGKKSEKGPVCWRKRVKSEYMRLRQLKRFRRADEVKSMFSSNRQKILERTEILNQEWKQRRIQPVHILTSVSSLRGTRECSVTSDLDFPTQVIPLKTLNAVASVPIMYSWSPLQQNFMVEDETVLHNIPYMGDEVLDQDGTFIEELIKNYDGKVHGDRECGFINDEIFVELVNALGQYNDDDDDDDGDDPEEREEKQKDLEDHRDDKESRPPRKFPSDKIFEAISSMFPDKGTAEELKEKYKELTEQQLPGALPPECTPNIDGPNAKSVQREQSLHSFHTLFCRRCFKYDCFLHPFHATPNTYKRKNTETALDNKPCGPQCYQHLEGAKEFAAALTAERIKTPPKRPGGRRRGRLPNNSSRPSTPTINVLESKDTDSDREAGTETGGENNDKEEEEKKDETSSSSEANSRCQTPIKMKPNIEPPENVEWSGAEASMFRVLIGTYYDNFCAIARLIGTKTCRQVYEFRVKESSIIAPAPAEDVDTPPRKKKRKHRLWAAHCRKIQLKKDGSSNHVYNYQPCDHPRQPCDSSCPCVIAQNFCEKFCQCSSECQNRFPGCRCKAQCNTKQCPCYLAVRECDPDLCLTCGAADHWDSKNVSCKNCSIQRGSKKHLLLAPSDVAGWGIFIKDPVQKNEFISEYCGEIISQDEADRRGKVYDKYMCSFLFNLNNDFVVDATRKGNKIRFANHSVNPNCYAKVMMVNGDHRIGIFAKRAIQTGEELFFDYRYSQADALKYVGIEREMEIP
T1 sequence (O75530 whole entry partner): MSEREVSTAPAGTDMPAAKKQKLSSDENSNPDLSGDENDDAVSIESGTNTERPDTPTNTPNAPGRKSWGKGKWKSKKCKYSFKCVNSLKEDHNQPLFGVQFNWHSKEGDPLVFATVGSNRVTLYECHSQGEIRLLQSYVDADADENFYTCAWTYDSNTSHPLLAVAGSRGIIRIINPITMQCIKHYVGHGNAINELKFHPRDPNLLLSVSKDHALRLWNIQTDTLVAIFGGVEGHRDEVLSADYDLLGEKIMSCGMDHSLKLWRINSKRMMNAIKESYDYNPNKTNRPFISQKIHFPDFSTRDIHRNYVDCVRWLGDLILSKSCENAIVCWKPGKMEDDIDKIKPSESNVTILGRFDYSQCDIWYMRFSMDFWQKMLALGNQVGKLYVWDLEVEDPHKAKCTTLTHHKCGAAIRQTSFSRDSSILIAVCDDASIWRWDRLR
T1 sequence (Q15022 whole entry partner): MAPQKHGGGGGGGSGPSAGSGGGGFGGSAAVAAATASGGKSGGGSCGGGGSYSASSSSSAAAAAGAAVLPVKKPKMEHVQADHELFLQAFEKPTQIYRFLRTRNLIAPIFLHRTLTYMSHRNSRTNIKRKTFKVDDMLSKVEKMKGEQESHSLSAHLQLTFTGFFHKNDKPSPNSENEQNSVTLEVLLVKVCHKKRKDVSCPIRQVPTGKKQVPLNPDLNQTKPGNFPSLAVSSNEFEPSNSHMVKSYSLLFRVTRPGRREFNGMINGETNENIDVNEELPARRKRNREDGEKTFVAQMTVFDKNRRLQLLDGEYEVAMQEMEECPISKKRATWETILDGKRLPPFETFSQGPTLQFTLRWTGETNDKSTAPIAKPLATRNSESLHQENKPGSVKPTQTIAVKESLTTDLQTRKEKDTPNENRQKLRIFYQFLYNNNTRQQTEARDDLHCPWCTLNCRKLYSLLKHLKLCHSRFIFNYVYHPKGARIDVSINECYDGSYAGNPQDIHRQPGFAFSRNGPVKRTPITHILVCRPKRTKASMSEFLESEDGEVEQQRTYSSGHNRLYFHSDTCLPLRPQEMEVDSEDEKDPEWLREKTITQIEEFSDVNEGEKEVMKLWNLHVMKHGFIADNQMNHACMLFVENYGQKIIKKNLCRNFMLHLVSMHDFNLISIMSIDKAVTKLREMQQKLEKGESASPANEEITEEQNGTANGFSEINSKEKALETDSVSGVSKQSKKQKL
Chain of PRC2-EZH1 (WT EZH1) (Q92800 whole entry): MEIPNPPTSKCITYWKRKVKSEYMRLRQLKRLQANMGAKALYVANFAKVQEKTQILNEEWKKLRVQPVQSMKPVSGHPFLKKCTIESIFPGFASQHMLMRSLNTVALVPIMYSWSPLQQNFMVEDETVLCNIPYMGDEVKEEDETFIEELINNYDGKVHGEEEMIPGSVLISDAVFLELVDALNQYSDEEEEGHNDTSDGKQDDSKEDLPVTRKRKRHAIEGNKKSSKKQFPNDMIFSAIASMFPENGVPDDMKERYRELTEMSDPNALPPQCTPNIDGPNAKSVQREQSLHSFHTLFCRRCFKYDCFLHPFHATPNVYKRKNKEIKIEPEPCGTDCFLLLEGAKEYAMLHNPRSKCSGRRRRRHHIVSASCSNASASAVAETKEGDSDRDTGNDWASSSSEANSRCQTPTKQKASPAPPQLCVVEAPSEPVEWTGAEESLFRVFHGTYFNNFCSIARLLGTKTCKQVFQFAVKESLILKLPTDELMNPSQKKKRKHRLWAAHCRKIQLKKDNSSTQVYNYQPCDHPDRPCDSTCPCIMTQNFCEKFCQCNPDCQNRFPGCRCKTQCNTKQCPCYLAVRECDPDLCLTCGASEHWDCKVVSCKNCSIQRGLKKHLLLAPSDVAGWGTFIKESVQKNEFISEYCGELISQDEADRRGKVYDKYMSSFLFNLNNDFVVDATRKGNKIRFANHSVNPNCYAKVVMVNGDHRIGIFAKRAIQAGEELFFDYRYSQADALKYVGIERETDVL
Chain of PRC2-EZH1 (WT EZH1) (O75530 whole entry partner): as the sequence (O75530 whole entry partner) above
Chain of PRC2-EZH1 (WT EZH1) (Q15022 whole entry partner): as the sequence (Q15022 whole entry partner) above
Chain of PRC2-EZH1 (WT EZH1) (Q09028 whole entry partner): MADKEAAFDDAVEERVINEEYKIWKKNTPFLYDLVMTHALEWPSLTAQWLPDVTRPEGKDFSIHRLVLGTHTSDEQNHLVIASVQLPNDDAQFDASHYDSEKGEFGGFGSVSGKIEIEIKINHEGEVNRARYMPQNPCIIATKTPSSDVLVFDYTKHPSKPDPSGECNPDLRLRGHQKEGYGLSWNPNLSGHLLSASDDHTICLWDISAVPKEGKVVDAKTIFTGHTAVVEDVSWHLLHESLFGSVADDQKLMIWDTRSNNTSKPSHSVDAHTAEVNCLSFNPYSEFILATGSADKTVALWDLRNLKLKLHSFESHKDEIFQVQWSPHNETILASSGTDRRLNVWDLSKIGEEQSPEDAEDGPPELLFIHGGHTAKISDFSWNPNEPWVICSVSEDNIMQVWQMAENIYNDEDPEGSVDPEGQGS
Chain of PRC2-EZH1 (WT EZH1) (Q6ZN18 whole entry partner): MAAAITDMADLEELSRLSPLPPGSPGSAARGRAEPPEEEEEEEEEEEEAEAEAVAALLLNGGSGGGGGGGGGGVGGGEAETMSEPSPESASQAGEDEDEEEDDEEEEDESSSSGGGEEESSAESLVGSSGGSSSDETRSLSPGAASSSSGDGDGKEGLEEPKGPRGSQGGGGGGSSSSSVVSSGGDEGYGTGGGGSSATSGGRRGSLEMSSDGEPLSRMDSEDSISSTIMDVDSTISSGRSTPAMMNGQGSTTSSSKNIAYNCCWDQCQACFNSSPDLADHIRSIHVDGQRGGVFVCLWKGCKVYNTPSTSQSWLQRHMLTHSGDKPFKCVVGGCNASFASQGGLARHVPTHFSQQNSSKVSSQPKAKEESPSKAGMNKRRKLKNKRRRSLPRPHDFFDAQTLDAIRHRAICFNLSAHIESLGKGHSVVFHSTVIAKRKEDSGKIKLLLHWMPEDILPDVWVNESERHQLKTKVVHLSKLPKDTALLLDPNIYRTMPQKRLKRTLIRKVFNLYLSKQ
Description for PRC2-EZH1 (WT EZH1): EZH1 Methyltransferase Inhibitory Activity Evaluation
(§1) Then, the residual radioactivity was measured using TopCount NXT HTS (PerkinElmer, Inc., model C384V01).
Description for PRC2-EZH2 (WT EZH2): EZH2 Methyltransferase Inhibitory Activity Evaluation
as §1

Consider `Cc1cc(C)c(CNC(=O)c2cc(Br)c3c(c2C)OC(C)([C@H]2CC[C@H](N)CC2)O3)c(=O)[nH]1` (relative stereo) [Example 13, 2-(trans-4-Aminocyclohexyl)-7-bromo-N-[(4,6-dimethyl-2-oxo-1,2-dihydropyridin-3-yl)methyl]-2,4-dimethyl-1,3-benzodioxole-5-carboxamide], for which the IC50 on PRC2-EZH1 (WT EZH1) turned out to be 21 nM; against PRC2-EZH2 (WT EZH2), 16 nM; in assay [1], 5.9 nM.

As to `COc1cc(C)[nH]c(=O)c1CNC(=O)c1cc(Br)c2c(c1C)OC(C)([C@H]1CC[C@H](N(C)C)CC1)O2` (relative stereo) [Example 16, 7-Bromo-2-[trans-4-(dimethylamino)cyclohexyl]-N-[(4-methoxy-6-methyl-2-oxo-1,2-dihydropyridin-3-yl)methyl]-2,4-dimethyl-1,3-benzodioxole-5-carboxamide], the 50% inhibitory concentration (IC50) at PRC2-EZH1 (WT EZH1) is 9.4 nM; against PRC2-EZH2 (WT EZH2) it was 12 nM; in assay [1] it was 1.4 nM.

In the case of `CCc1cc(C)[nH]c(=O)c1CNC(=O)c1cc(Br)c2c(c1C)OC(C)([C@H]1CC[C@H](N(C)C)CC1)O2` (relative stereo) [Example 17, 7-Bromo-2-[trans-4-(dimethylamino)cyclohexyl]-N-[(4-ethyl-6-methyl-2-oxo-1,2-dihydropyridin-3-yl)methyl]-2,4-dimethyl-1,3-benzodioxole-5-carboxamide], the IC50 against PRC2-EZH1 (WT EZH1) was determined as 17 nM; against PRC2-EZH2 (WT EZH2), 23 nM; in assay [1] it was 1.2 nM.

In the case of `CCCc1cc(C)[nH]c(=O)c1CNC(=O)c1cc(Br)c2c(c1C)OC(C)([C@H]1CC[C@H](N(C)C)CC1)O2` (relative stereo) [Example 18, 7-Bromo-2-[trans-4-(dimethylamino)cyclohexyl]-2,4-dimethyl-N-[(6-methyl-2-oxo-4-propyl-1,2-dihydropyridin-3-yl)methyl]-1,3-benzodioxole-5-carboxamide], the values for the IC50 (at PRC2-EZH1 (WT EZH1); against PRC2-EZH2 (WT EZH2); in assay [1]) were 19 nM, 23 nM and 5.8 nM, respectively.

In the case of `CCN[C@H]1CC[C@H](C2(C)Oc3c(Br)cc(C(=O)NCc4c(C)cc(C)[nH]c4=O)c(C)c3O2)CC1` (relative stereo) [Example 19, 7-Bromo-N-[(4,6-dimethyl-2-oxo-1,2-dihydropyridin-3-yl)methyl]-2-[trans-4-(ethylamino)cyclohexyl]-2,4-dimethyl-1,3-benzodioxole-5-carboxamide], the values for the IC50 (against PRC2-EZH1 (WT EZH1); on PRC2-EZH2 (WT EZH2); in assay [1]) were 28 nM, 25 nM and 11 nM, respectively.

With `CCN(C)[C@H]1CC[C@H](C2(C)Oc3c(Br)cc(C(=O)NCc4c(C)cc(C)[nH]c4=O)c(C)c3O2)CC1` (relative stereo) [Example 20, 7-Bromo-N-[(4,6-dimethyl-2-oxo-1,2-dihydropyridin-3-yl)methyl]-2-[trans-4-[N-ethyl(N-methyl)amino]cyclohexyl]-2,4-dimethyl-1,3-benzodioxole-5-carboxamide], the half-maximal inhibitory concentration (IC50) against PRC2-EZH1 (WT EZH1) came to 23 nM; at PRC2-EZH2 (WT EZH2) it was 17 nM; in assay [1], 2.8 nM.

For the compound `CCN(CC)[C@H]1CC[C@H](C2(C)Oc3c(Br)cc(C(=O)NCc4c(C)cc(C)[nH]c4=O)c(C)c3O2)CC1` (relative stereo) [Example 21, 7-Bromo-2-[trans-4-(diethylamino)cyclohexyl]-N-[(4,6-dimethyl-2-oxo-1,2-dihydropyridin-3-yl)methyl]-2,4-dimethyl-1,3-benzodioxole-5-carboxamide], the values for the 50% inhibitory concentration (IC50) (at PRC2-EZH1 (WT EZH1); against PRC2-EZH2 (WT EZH2); in assay [1]) were 60 nM, 18 nM and 10 nM, respectively.

On to `Cc1cc(C)c(CNC(=O)c2ccc3c(c2C)OC(C)([C@H]2CC[C@H](N(C)C)CC2)O3)c(=O)[nH]1` (relative stereo) [Example 23, 2-[trans-4-(Dimethylamino)cyclohexyl]-N-[(4,6-dimethyl-2-oxo-1,2-dihydropyridin-3-yl)methyl]-2,4-dimethyl-1,3-benzodioxole-5-carboxamide], for which the half-maximal inhibitory concentration (IC50) at PRC2-EZH1 (WT EZH1) came to 4.1 nM; against PRC2-EZH2 (WT EZH2) it was 5.6 nM; in assay [1] it was 2.8 nM.

Consider `Cc1cc(C)c(CNC(=O)c2cc(Br)c3c(c2C)OC(C)([C@H]2CC[C@H](CN(C)C)CC2)O3)c(=O)[nH]1` (relative stereo) [Example 24, 7-Bromo-2-[trans-4-[(dimethylamino)methyl]cyclohexyl]-N-[(4,6-dimethyl-2-oxo-1,2-dihydropyridin-3-yl)methyl]-2,4-dimethyl-1,3-benzodioxole-5-carboxamide], for which the IC50 against PRC2-EZH1 (WT EZH1) was 140 nM; on PRC2-EZH2 (WT EZH2) it was 12 nM; in assay [1], 19 nM.

On to `Cc1cc(C)c(CNC(=O)c2cc(Br)c3c(c2C)OC(C)(C[C@H]2CC[C@@H](N(C)C)CC2)O3)c(=O)[nH]1` (relative stereo) [Example 27, 7-Bromo-2-[[cis-4-(dimethylamino)cyclohexyl]methyl]-N-[(4,6-dimethyl-2-oxo-1,2-dihydropyridin-3-yl)methyl]-2,4-dimethyl-1,3-benzodioxole-5-carboxamide], for which the IC50 against PRC2-EZH1 (WT EZH1) was 23 nM; at PRC2-EZH2 (WT EZH2), 22 nM; in assay [1], 3.8 nM.

On to `Cc1cc(C)c(CNC(=O)c2cc(Br)c3c(c2C)OC(C)([C@H]2CC[C@@H](N(C)C)CC2)O3)c(=O)[nH]1` (relative stereo) [Example 41, 7-Bromo-2-[cis-4-(dimethylamino)cyclohexyl]-N-[(4,6-dimethyl-2-oxo-1,2-dihydropyridin-3-yl)methyl]-2,4-dimethyl-1,3-benzodioxole-5-carboxamide], for which, in assay [1], the IC50 was determined as 11 nM.

Consider `Cc1cc(C)c(CNC(=O)c2cc(Br)c3c(c2C)OC(C)(C2CCOCC2)O3)c(=O)[nH]1` (stereo not drawn) [Example 2, 7-Bromo-N-[(4,6-dimethyl-2-oxo-1,2-dihydropyridin-3-yl)methyl]-2,4-dimethyl-2-(tetrahydropyran-4-yl)-1,3-benzodioxole-5-carboxamide], for which the IC50 against PRC2-EZH2 (WT EZH2) is 22 nM; in assay [1], 9 nM.

As for `CCCN1CCC([C@@]2(C)Oc3c(Br)cc(C(=O)NCc4c(C)cc(C)[nH]c4=O)c(C)c3O2)CC1` [Example 9, (2R)-7-Bromo-N-[(4,6-dimethyl-2-oxo-1,2-dihydropyridin-3-yl)methyl]-2,4-dimethyl-2-(1-propyl-4-piperidyl)-1,3-benzodioxole-5-carboxamide], the IC50 was 11 nM against PRC2-EZH2 (WT EZH2) and 13 nM in assay [1].

For `CCS(=O)(=O)N1CCC([C@@]2(C)Oc3c(Br)cc(C(=O)NCc4c(C)cc(C)[nH]c4=O)c(C)c3O2)CC1` [Example 11, (2R)-7-Bromo-N-[(4,6-dimethyl-2-oxo-1,2-dihydropyridin-3-yl)methyl]-2-(1-ethylsulfonyl-4-piperidyl)-2,4-dimethyl-1,3-benzodioxole-5-carboxamide], the IC50 on PRC2-EZH2 (WT EZH2) was determined as 9.1 nM; in assay [1], 3.7 nM.

Regarding `Cc1cc(C)c(CNC(=O)c2cc(Br)c3c(c2C)OC(C)([C@@H]2CC[C@@H](N(C)C)CO2)O3)c(=O)[nH]1` (stereo partly drawn) [Example 22, 7-Bromo-2-[(2S,5R)-5-(dimethylamino)tetrahydropyran-2-yl]-N-[(4,6-dimethyl-2-oxo-1,2-dihydropyridin-3-yl)methyl]-2,4-dimethyl-1,3-benzodioxole-5-carboxamide], the IC50 against PRC2-EZH2 (WT EZH2) is 14 nM; in assay [1], 1.6 nM.

The term IC50 denotes the midpoint of a concentration-inhibition curve.
